Data published in patent US9199976B2, “Haematopoietic-prostaglandin D2 synthase inhibitors” (The University of Queensland, priority 2010, dated 2015).

Legend:
[1] = system: PGD2 production in mouse primary bone marrow-derived macrophages (BMM); test: PGD2 production in LPS-activated BMM (EIA); assay type: cell-based
Procedure: All bone marrow-derived macrophages (BMM) were obtained by culturing bone marrow cells from the femurs of 6 to 8 week old C57BL/6 male mice in RPMI 1640 medium (Invitrogen Life Technologies, Carlsbad, Calif., USA) supplemented with 10% Fetal calf serum (Invitrogen) 20 U/ml penicillin and 20 μg/ml streptomycin (Invitrogen), 2 mM L-glutamine (Glutamax-1, Invitrogen) in the presence of 10^4 U/ml (100 ng/mL) recombinant human CSF-1 (a gift from Chiron, Emeryville, Calif.) on bacteriological plastic plates for 7 days. The human megakaryocytic cell line MEG-01S was obtained from the American Type Culture Collection. MEG-01S were maintained in the same media as for BMM, supplemented with 1 mM Sodium Pyruvate (Invitrogen). […] The average PGD2 production from three independent experiments plus SEM is shown. * indicates p<0.05 versus LPS treatment alone. (Student's t test).

[2] = system: LPS-inducible PGE2 production from BMM; test: PGE2 production in LPS-activated BMM (EIA); assay type: cell-based; settings: LPS-activated mouse BMM, 24 h
Procedure: (§1) All bone marrow-derived macrophages (BMM) were obtained by culturing bone marrow cells from the femurs of 6 to 8 week old C57BL/6 male mice in RPMI 1640 medium (Invitrogen Life Technologies, Carlsbad, Calif., USA) supplemented with 10% Fetal calf serum (Invitrogen) 20 U/ml penicillin and 20 μg/ml streptomycin (Invitrogen), 2 mM L-glutamine (Glutamax-1, Invitrogen) in the presence of 10^4 U/ml (100 ng/mL) recombinant human CSF-1 (a gift from Chiron, Emeryville, Calif.) on bacteriological plastic plates for 7 days. The human megakaryocytic cell line MEG-01S was obtained from the American Type Culture Collection. MEG-01S were maintained in the same media as for BMM, supplemented with 1 mM Sodium Pyruvate (Invitrogen).
(§2) BMM were seeded overnight at 2×10^5 cells/ml in 24 well plates before treatment with compound at either 10 μM or 0.1-100 μM for 24 h in the presence or absence of lipopolysaccharide (LPS) from Salmonella Minnesota (Sigma-Aldrich) at a final concentration of 10 ng/ml. […] Supernatants were collected and samples were analysed for PGD2 using Prostaglandin D2 Mox Express EIA kits, PGE2 using Prostaglandin E2 Express EIA kits, the prostacyclin derivative 6-keto PGF1α using the 6-keto Prostaglandin F1α EIA Kit and the Thromboxane A2 derivative TXB2 using the Thromboxane B2 Express EIA kit (Cayman Chemical) according to the manufacturer's instructions. […]

[3] = system: LPS-inducible 6-keto PGF1α (prostacyclin derivative) production from BMM; test: 6-keto PGF1α production in LPS-activated BMM (EIA); assay type: cell-based; settings: LPS-activated mouse BMM, 24 h
Procedure: as §1, §2

[4] = system: LPS-inducible TXB2 (thromboxane A2 derivative) production from BMM; test: TXB2 production in LPS-activated BMM (EIA); assay type: cell-based; settings: LPS-activated mouse BMM, 24 h
Procedure: as §1, §2

BMM = BMM cell viability by MTT assay; assay type: cell-based, mouse; settings: LPS 10 ng/ml, 24 h, 10-100 μM
Procedure: as §1
(§3) Known inhibitors 1 and 2, along with compound 3, were used to treat BMM at three doses (10, 30, 100 μM) in the presence of LPS for 24 h and cell viability was measured by MTT assay. BMM were seeded at 1×10^5 cells/well in 96 well plates and treated for 24 h with LPS (10 ng/ml) and compounds at 10, 30 and 100 μM. MEG-01S were PMA differentiated overnight before compounds were added for a further 24 h at 10, 30 and 100 μM. Cell viability was measured by MTT (Sigma-Aldrich) assay as described previously (Irvine, FASEB J, 2006).

[5] = system: PGD2 production from MEG-01S human megakaryocytes; test: A23187-inducible PGD2 production in PMA-differentiated MEG-01S (EIA); assay type: cell-based; settings: 0-100 μM
Procedure: as §1, §2

MEG-01S cells = test: MEG-01S cell viability by MTT assay; assay type: cell-based, human; settings: 24 h, 0-100 μM
Procedure: as §1, §3
The effect of the compounds on MEG-01S cell viability was measured by MTT assay after 24 h treatment across the concentration range 0-100 μM of compounds (FIG. 3B). Data represent the average of 4 independent experiments plus SEM.

[6] = Rat pharmacokinetics, plasma concentration after oral dosing; assay type: in vivo, Sprague Dawley rat; settings: single oral 40 mg/kg; for Concentration (individual rat): rat plasma
Procedure: Male adult Sprague Dawley rates (˜165 g) received a single oral bolus dose of 40 mg/kg of compound 3 in a 0.5% methylcellulose/0.1% Tween80 by oral gavage. Rats were sacrificed when collecting blood and spleen samples just prior to dosing and at 0.5 hours, 2 h, 8 h and 24 h (n=3 rats per time point), and the plasma concentration of compound 3 and the spleen PGD2 concentration was measured at each time point.
Blood samples were removed and kept cold at approximately 4° C. immediately after collection to minimize degradation and centrifuged as soon as possible at approximately 4000×g for 10 min. The plasma was transferred to a clean, pre-labelled polypropylene tube and frozen. Samples were stored at −20° C. as soon as possible after collection to minimise degradation of the test item.
Plasma concentrations of 3 were determined using a screening LC-ms/ms method developed using the following parameters:
Samples were analysed alongside plasma standards. Concentration data were determined by back calculation from standard curve.

H-PGDS = H-PGDS (Homo sapiens (Human), UniProt O60760); test: H-PGDS catalyzed conjugation of GSH and CDNB, enzyme inhibition assay; assay type: biochemical; settings: 50 μM compound; mean ± standard error of triplicate experiments; read-out: I[50], percent inhibition at 50 μM
Procedure: H-PGDS was expressed and purified as described previously (Jowsey, 2001). Briefly, H-PGDS was expressed in Escherichia coli strain BL21 DE3 transformed with the pET17b HPGDS expression construct, grown overnight at 37° C. in 250 ml of Luria-Bertani medium supplemented with 100 μg/ml ampicillin. After 24 h, without induction, bacteria were harvested by centrifugation at 5000 g for 20 min at 4° C.; cell pellets were kept at −70° C. until required. Cells were resuspended in 25 ml of ice-cold phosphate buffered saline (PBS), pH 7.4, containing 1 mM DTT, 0.5% Triton X-100 and EDTA-free protease inhibitor tablets (F. Hoffmann-La Roche, Dee Why, NSW, Australia); and incubated with rotation for 30 mins at 4° C. Cells were then lysed by sonication at 90-100 W over 3×1 min intervals, while incubated on ice; the lysate clarified by centrifugation at 18000 g for 10 min at 4° C.
The supernatant was then applied to a GSTPrep FF 16/10 column pre-equilibrated with PBS, pH 7.4, and 1 mM DTT, at 0.4 ml/minute using an AKTA explorer 100 (GE Healthcare, Rydalmere, NSW, Australia), then washed with 5 column volumes of the same buffer at 1 ml/min. Bound H-PGDS was eluted in 5 column volumes of 15 mM reduced glutathione in 50 mM Tris, pH 9.0, at 0.5 ml/min, and dialysed against 100 volumes of 5 mM TrisCl, pH 8.0. The protein was concentrated to 20 mg/ml, as determined by the method of Bradford (Bradford, 1976) using an Amicon Ultra-4 centrifugal filter device (Millipore, North Ryde, NSW, Australia) following manufacturers recommendations. Glycerol was added to a final concentration of 10% (v/v) prior to storage at −20° C.
The H-PGDS catalyzed conjugation of GSH and 1-chloro-2,4-dinitrobenzene (CDNB) was used as the biochemical assay for enzyme inhibition. Reactions were performed in 96 well plate format, and product formation was followed at A340 nm over a 10 min interval at 25° C. using a POWERWAVE XS microplate scanning spectrophotometer (Bio-Tek Instruments, Winooski, Vt., USA). Reactions were performed in 0.1 M Tris HCl, pH 8.0 containing 2 mM MgCl2, 1 mM CDNB, 2 mM GSH, 2.5 ng/μ1 purified H-PGDS and 10% (v/v) ethanol in a 200 μl reaction volume. IC50 values were calculated from rates of conjugation activity determined at eight concentration points bracketing the IC50, where compound solubility allowed, and were corrected for background activity at the same solvent concentrations. All compounds were made up in 100% DMSO and diluted with 0.1 M Tris HCl, pH 8.0 with 2 mM MgCl2. I50 and IC50 values were determined at a final DMSO composition of no greater than 4% v/v for all compounds. Non-linear regression analysis and IC50 calculations were performed using GraphPad Prism version 4.0c.

Sequence of H-PGDS (O60760 whole entry): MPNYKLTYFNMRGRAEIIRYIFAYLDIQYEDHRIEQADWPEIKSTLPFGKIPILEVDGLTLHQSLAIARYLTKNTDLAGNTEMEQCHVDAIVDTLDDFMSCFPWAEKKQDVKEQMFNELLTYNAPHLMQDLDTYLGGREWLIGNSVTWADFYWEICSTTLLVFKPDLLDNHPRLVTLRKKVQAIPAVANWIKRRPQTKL

Structure (SMILES): NC(=O)[C@H](Cc1ccccc1)NC(=O)c1ccc(-c2cccs2)nc1 (stereo in doubt) [Compound 3, N-(1-amino-1-oxo-3-phenylpropan-2-yl)-6-(thiophen-2-yl)-nicotinamide]
- differential effect in inhibition of PGD2 versus PGE2, 6-keto PGF1α or TXB2 (selectivity) ([1]; LPS-activated mouse BMM): striking selectivity
- inhibition of PGD2 production ([1]; LPS-activated mouse BMM, 0-100 μM, 24 h): inhibited PGD2 production in the sub-micromolar range dose-dependently
- inhibition of PGD2 levels at 1 μM ([1]; LPS-activated mouse BMM, 1 μM): significantly inhibiting
- EC50 fold better than that estimated for compound 1 ([1]; LPS-activated mouse BMM, PGD2 production): ~30 fold
- concentration above which PGE2 inhibition was observed [2]: above 10 μM
- concentration above which 6-keto PGF1α inhibition was observed [3]: above 10 μM
- concentration above which TXB2 inhibition was observed [4]: above 10 μM
- effect on BMM cell viability (BMM): did not affect BMM viability
- inhibition of A23187-inducible PGD2 production [5]: dose-dependently
- effect on MEG-01S cell viability (MEG-01S cells): little effect
- Concentration (individual rat) ([6]; 0.5 h): 177 ng/mL
- Concentration (individual rat) ([6]; 24 h, BLOQ = below the lower limit of quantitation): BLOQ^2
- oral bioavailability ([6]; rat): orally bioavailable

Structure (SMILES): c1ccc(C(OC2CCN(CCCc3nnn[nH]3)CC2)c2ccccc2)cc1 [Compound 1]
- effect on BMM cell viability (BMM): modest but significant effects
- effect on MEG-01S cell viability (MEG-01S cells): little effect

Structure (SMILES): c1ccc(-c2ncc(-c3cc[nH]n3)s2)cc1 [Compound 2]
- EC50 ([1]; Mus musculus, Macrophage, 24 h, read-out: EC50 for inhibition of PGD2 production): ~160 nM
- effect on BMM cell viability (BMM): modest but significant effects
- effect on MEG-01S cell viability (MEG-01S cells): little effect

Structure (SMILES): O=C(c1ccc(-c2cccs2)nc1)N1CCC(N2C(=O)OCc3ccccc32)CC1 [Compound 13, 1-(1-(6-(thiophen-2-yl)nicotinoyl)piperidin-4-yl)-1H-benzo[d][1,3]oxazin-2(4H)-one]
- inhibition at 50 µM (H-PGDS): 87.9 ± 1.1%

Structure (SMILES): NC(=O)[C@H](Cc1ccccc1)NC(=O)c1ccc(-c2ccc(C(=O)O)s2)nc1 [Compound 15]
- inhibition at 50 µM (H-PGDS): 19.4 ± 1.4%

Structure (SMILES): N#Cc1ccc(-c2ccc(C(=O)N[C@@H](Cc3ccccc3)C(N)=O)cn2)s1 [Compound 20]
- inhibition at 50 µM (H-PGDS): 67.9 ± 1.6%

Structure (SMILES): Cc1cc(-c2ccc(C(=O)N[C@@H](Cc3ccccc3)C(N)=O)cn2)sc1C#N [Compound 22]
- inhibition at 50 µM (H-PGDS): 34.6 ± 2.1%
